Experiments:
Type in all cases: cell-based
[1] = tested on: SU-DHL2 cells (MYD88 mutant); assay: Cell viability (CTG) with SU-DHL2; details: Homo sapiens, SU-DHL-2; MYD88 mutant line
[2] = tested on: OCI-LY19 cells (MYD88 WT); assay: Cell viability (CTG) with OCI-LY19; details: Homo sapiens, MYD88 WT line
[3] = tested on: SU-DHL6 cells (MYD88 WT); assay: Cell viability (CTG) with SU-DHL6; details: Homo sapiens, SU-DHL-6; MYD88 WT line
[4] = tested on: U2932 cells (MYD88 WT); assay: Cell viability (CTG) with U2932; details: Homo sapiens, MYD88 WT line
[5] = tested on: OCI-LY10 cells (MYD88 mutant); assay: Cell viability assay (CellTiter-Glo) with OCI-LY10; details: Homo sapiens, MYD88 mutant line, read-out: OCI-LY10 Viability, CTG IC50
Protocol: Compound-mediated viability effect on OCI-LY10 or TMD8 was quantitatively determined using the CellTiter-Glo® Luminescent Cell Viability Assay kit from Promega (Catalog number G7570) following manufacturer's recommended procedures. Briefly, OCI-LY10 or TMD8 cells were seeded into 384 well plates (Grenier Bio-One, Catalog number 781080) with a density of 10,000 cells per well. Compounds were then added to the assay plate with final top concentration of 10 μM and 1:3 dilution series with total of 9 doses. The final DMSO concentration was normalized to 0.2%. The assay plates were incubated at 37° C. for 4 days under 5% CO2. Then the assay plate was equilibrated at room temperature for 10 minutes. To determine cell viability, 30 μL CellTiter Glo reagent was added to each well and the assay plate was centrifuged at 1000 rpm for 30 second, incubated at room temperature for 10 min, and analyzed by detecting the luminescence using a multimode plate reader (EnVision 2105, PerkinElmer). The data was then analyzed by software Prism 7.0 from GraphPad and the dose response curves were fit using a three-parameter logistic equation to calculate IC50.

IC50 [1]: > 10 µM
IC50 [2]: > 10 µM
IC50 [3]: 4.1 µM
IC50 [5]: 3.5 µM
SMILES: CC[C@@H]1CC(=O)N[C@@H]1COc1ncc(C#C[C@H]2CC[C@H](CN3CCC(OCCCc4cccc5c4n(C)c(=O)n5C4CCC(=O)NC4=O)CC3)CC2)c2cc(C(N)=O)c(OC)cc12 (some centres unmarked) [I-1]
IC50 [4]: > 10 µM
